The target in data set [1] is T1, recombinant human CYP2C9 (Homo sapiens, UniProt P11712).
T1 construct: purchased Promega (Madison, WI, USA)
The data set is described as follows: CYP2C9 P450-Glo luminescent assay. The format is in vitro ADME. The protocol:
The risk of potential DDIs was predicted with use of luminescent CYP3A4, 2D6, and 2C9 P450-Glo assays (Figure 6). […] However, such an effect was also observed in our previous studies for other pyrrolidine-2,5-dione derivatives. […] However, the potential risk of DDI of 60 was still assessed as very low, and was compared to the selective CYP2C9 inhibitor sulfaphenazole (Figure 6C).
The data were analyzed with one-way ANOVA, followed by Bonferroni’s Multiple Comparison Post Test (Graph Pad Prism 8.0.1 software, San Diego, CA, USA)): * p < 0.05, ** p < 0.01, *** p < 0.001 **** p < 0.0001. The compounds were examined in triplicate.

The target in data set [2] is T2, TRPV1 (VR1) (h) (Homo sapiens, UniProt Q8NER1).
T2 construct: host or cells: CHO
The data set is described as follows: TRPV1 (VR1) (h) antagonist effect functional assay. Type of data set: cell-based. The following applies: human recombinant CHO cells.

Data set [3] deals with hepatoma HepG2 cell line. The data set is described as follows: Hepatotoxicity, HepG2 viability (MTS). The following applies: 72 h treatment. The format is cell-based. As to the method:
Figure 7 The effect of 53, 60, and 62, cytostatic drug doxorubicin (DX) and the mitochondrial toxin CCCP on the hepatoma HepG2 cell line viability after 72 h of incubation at 37 °C, 5% CO2. The data were analyzed with one-way ANOVA, followed by Bonferroni’s Comparison Test (Graph Pad Prism 8.0.1 software, San Diego, CA, USA)): ** p < 0.01, **** p < 0.0001 vs. negative control (DMSO 1% in growth media).

Data set [4] concerns scPTZ-induced seizures in mice. The data set is described as follows: Subcutaneous pentylenetetrazole (scPTZ) seizure test. As to conditions: 100 mg/kg i.p., 0.5 h; for protection in scPTZ screening: four mice. The format is in vivo. The gist of the method:
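Adult male Albino Swiss mice (22-26 g) received compounds suspended in 1% aqueous Tween 80, single i.p. injection at 10 mL/kg. ED50 from 3–4 dose groups of eight mice; protective index computed as TD50 (chimney or rotarod) divided by ED50.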

The nature of data set [5]: Metabolic stability in human liver microsomes (HLMs). The following applies: for remaining at 2 h: human, human liver microsomes; for Metabolic Pathway: metabolites after 120 min incubation with HLMs. (In general: Microsomes from liver hold many membrane-bound enzymes, among them those of drug oxidation.)
The target of data set [6] is T2, TRPV1 (VR1) (h). In words: TRPV1 (VR1) (h) antagonist effect functional assay. The format is cell-based. As to conditions: human recombinant CHO cells, read-out: % Inhibition of control agonist response, TRPV1 (antagonist effect). The gist of the method:
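Commercial Eurofins radioligand binding and functional panel: [3H]GABA agonist binding for GABAA, antagonist radioligand binding for GABA transporter, cell-based calcium flux antagonist assay for human Cav1.2. TRPV1 antagonism measured in human recombinant CHO cells at 100 µM as % inhibition of control agonist response.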

For data set [7], the target named is T3, Cav1.2 (h) calcium ion channel (Homo sapiens, UniProt Q13936).
T3 construct: Eurofins
The data set is described as follows: Cav1.2 (h) calcium ion channel cell-based antagonist calcium flux assay. The following applies: HEK293, human recombinant HEK-293 cell, read-out: % Inhibition of control agonist response, Cav1.2 calcium flux. The protocol: Binding/functional studies were carried out commercially in Eurofins Laboratories (Poitiers, France) and Eurofins Panlabs Discovery Services Taiwan, Ltd. (New Taipei City, Taiwan) using testing procedures that were reported previously (for details see Table S2).
Table S2. Radioligand binding and functional assays. […]
TRPV1 (VR1) (h) (antagonist effect)
Cav1.2 (L-type) (h) calcium ion channel cell-based antagonist calcium flux assay
Assays were performed commercially in Eurofins Laboratories (Poitiers, France) or Eurofins Panlabs Discovery
Services Taiwan, Ltd. (New Taipei City, Taiwan). […]
(In general: Calcium flux is commonly read through the fluorescence of an indicator in the cells.)

Molecules are shown by their SMILES. pIC50: −log10 of the molar value. Entries after “also recorded” stand apart in the source; their conditions may differ.

T2 sequence (Q8NER1 whole entry): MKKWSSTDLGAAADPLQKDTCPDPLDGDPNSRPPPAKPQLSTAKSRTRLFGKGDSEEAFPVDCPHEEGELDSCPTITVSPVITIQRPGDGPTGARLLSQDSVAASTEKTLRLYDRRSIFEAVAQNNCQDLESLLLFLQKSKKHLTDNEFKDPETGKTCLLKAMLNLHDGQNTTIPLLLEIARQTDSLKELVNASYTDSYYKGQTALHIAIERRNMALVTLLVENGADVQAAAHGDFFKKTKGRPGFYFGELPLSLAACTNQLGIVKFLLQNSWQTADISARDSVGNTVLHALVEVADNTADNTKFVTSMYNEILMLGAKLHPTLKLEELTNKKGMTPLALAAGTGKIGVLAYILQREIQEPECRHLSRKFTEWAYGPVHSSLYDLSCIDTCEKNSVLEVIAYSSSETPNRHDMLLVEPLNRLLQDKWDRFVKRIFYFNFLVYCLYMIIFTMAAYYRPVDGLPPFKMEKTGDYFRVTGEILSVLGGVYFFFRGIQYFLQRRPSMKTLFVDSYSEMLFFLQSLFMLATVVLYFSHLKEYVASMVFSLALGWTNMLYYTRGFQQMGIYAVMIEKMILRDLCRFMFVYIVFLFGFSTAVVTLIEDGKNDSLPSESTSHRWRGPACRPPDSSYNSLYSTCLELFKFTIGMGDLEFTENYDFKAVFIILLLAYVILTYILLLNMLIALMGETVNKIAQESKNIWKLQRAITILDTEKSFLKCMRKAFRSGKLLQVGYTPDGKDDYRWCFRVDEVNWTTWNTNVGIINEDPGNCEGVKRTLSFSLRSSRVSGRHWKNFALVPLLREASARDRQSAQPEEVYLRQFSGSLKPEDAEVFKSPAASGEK
T3 sequence (Q13936 whole entry): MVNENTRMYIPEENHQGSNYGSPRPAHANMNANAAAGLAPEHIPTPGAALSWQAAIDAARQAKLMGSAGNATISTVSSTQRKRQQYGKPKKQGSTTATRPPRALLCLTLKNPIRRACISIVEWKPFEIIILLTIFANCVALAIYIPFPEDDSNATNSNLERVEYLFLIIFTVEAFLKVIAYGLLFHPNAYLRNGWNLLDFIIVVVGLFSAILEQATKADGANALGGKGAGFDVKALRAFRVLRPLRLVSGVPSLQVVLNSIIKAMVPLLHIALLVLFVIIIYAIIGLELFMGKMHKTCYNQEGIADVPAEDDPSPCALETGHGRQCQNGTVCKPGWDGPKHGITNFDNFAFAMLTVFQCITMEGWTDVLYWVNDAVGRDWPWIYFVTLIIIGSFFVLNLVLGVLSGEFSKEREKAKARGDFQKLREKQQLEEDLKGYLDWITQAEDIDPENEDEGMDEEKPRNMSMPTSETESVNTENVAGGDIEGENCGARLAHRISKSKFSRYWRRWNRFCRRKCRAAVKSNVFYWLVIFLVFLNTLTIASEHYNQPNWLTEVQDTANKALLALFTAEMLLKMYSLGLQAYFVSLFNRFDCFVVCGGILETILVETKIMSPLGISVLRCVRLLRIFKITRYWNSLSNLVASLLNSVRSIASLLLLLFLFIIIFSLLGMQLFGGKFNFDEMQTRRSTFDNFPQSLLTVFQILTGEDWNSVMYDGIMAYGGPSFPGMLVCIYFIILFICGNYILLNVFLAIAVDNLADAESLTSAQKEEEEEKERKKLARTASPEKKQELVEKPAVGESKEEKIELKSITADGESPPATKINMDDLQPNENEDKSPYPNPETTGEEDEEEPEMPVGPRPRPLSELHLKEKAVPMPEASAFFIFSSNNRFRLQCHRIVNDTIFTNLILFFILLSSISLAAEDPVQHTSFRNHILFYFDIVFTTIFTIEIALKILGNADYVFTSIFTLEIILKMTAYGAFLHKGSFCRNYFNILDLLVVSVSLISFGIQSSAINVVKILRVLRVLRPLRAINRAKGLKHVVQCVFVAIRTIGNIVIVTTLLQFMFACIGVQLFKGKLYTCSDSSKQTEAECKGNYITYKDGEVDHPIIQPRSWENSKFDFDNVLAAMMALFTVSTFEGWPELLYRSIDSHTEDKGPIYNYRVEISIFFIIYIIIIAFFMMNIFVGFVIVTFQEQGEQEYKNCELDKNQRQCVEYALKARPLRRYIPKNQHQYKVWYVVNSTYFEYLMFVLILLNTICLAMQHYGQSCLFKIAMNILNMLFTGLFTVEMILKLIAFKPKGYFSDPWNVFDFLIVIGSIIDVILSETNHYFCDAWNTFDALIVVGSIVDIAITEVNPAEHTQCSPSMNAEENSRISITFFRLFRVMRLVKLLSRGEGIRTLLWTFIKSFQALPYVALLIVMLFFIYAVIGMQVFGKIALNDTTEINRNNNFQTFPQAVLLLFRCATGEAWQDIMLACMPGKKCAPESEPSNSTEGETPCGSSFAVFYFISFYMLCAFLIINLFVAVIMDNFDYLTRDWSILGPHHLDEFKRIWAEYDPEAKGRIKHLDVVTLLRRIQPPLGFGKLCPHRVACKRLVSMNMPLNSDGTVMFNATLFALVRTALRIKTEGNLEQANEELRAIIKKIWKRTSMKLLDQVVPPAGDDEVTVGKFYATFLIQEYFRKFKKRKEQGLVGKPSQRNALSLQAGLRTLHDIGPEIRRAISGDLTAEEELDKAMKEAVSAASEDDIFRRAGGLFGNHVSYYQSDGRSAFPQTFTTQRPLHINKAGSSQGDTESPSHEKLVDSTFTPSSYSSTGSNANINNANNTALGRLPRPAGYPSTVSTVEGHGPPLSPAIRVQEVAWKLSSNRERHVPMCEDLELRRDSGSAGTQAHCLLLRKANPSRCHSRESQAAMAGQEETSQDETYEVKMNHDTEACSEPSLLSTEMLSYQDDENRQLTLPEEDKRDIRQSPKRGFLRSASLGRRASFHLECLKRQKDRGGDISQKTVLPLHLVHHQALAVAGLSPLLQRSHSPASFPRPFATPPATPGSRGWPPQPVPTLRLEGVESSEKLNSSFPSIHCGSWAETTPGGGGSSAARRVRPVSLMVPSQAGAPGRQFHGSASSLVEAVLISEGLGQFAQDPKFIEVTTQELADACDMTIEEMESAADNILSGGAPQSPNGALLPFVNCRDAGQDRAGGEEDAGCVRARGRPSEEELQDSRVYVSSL
T3 sequence (Q08289 whole entry partner): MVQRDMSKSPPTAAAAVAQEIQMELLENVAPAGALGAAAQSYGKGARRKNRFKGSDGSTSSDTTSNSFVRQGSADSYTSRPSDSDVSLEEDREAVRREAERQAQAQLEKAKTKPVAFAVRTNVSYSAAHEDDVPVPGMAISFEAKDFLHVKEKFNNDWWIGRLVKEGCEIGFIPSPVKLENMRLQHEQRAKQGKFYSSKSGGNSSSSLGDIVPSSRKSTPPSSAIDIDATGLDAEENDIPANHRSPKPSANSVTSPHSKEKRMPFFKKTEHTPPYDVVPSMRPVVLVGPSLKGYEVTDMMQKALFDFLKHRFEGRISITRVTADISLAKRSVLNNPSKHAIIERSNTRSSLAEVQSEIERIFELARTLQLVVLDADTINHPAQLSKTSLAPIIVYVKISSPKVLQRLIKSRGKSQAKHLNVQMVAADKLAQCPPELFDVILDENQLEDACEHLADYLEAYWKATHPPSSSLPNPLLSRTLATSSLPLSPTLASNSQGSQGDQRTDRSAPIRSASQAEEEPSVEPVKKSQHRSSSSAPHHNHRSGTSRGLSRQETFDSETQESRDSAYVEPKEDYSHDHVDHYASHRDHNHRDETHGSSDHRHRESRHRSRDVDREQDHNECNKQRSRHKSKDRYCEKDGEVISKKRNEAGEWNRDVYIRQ
T3 sequence (P54289 25-956 partner limits assumed): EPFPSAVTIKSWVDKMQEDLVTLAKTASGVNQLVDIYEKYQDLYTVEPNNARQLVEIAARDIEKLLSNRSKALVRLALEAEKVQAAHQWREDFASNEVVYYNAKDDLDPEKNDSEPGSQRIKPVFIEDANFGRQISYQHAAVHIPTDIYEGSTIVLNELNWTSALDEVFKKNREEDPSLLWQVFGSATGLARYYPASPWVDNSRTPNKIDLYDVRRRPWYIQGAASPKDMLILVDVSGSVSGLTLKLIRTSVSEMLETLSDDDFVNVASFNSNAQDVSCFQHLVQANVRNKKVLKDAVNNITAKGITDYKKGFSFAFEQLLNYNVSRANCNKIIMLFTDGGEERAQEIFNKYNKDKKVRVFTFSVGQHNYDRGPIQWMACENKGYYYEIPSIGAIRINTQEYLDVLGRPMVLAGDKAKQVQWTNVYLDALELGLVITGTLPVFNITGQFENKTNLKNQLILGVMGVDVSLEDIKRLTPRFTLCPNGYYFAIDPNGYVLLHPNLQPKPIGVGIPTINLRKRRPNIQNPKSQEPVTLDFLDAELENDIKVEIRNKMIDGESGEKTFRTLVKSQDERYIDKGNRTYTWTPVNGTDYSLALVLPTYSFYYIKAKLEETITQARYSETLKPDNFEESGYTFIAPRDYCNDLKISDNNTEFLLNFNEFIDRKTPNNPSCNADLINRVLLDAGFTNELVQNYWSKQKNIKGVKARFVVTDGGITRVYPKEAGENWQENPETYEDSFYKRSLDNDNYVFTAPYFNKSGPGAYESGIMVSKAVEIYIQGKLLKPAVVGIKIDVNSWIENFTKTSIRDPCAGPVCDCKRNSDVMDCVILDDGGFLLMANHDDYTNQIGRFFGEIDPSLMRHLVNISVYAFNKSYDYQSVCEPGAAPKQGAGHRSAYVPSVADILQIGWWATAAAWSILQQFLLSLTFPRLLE
T3 sequence (P54289 957-1103 partner limits assumed): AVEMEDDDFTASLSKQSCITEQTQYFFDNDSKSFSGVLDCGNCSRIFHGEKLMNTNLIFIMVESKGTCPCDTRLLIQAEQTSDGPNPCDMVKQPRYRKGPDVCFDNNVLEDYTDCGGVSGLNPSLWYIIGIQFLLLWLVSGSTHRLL

On to `CC(=O)NC(C(=O)N1CCN(c2cccc(C(F)(F)F)c2)CC1)c1ccccc1` (centres unmarked) [Compound 53, N-(2-oxo-1-phenyl-2-(4-(3-(trifluoromethyl)phenyl)piperazin-1-yl)ethyl)acetamide], for which the “influence on CYP2C9 activity” value in data set [1] is reported as “weak inhibition effect”. In data set [2], the pIC50 was 4.89 and the Kb is 1.7 µM. Also, in data set [3], the “effect on HepG2 cell viability (hepatotoxicity)” value is listed as “observed only at 100 µM”. For the same compound, in data set [4], the “scPTZ screening: number of mice protected/number of mice tested” value is 1/4 and the “protection in scPTZ screening” value is listed as 25%. Also, in data set [5], the share remaining at 2 h was 95.6% and the “Metabolic Pathway” value is reported as “hydroxylation”. Also, in data set [6], the inhibition at 100 µM was 128%. Further, the inhibition at 10 µM in data set [7] turned out to be 55%.

With `CC(=O)NC(C(=O)N1CCN(c2cccc(OC(F)(F)F)c2)CC1)c1ccccc1` (centres unmarked) [Compound 60, N-(2-oxo-1-phenyl-2-(4-(3-(trifluoromethoxy)phenyl)piperazin-1-yl)ethyl)acetamide], the “influence on CYP2C9 activity” value in data set [1] is “a little stronger influence, observed also at 10 µM”. Further, in data set [2], the negative logarithm of the IC50 (pIC50) was 4.96 and the Kb was found to be 1.5 µM. Moreover, the “effect on HepG2 cell viability (hepatotoxicity)” value in data set [3] was “observed only at 100 µM”. Further, in data set [4], the “scPTZ screening: number of mice protected/number of mice tested” value was 1/4 and the “protection in scPTZ screening” value is given as 25%. In addition, in data set [5], the share remaining at 2 h worked out at 88.8% and the “Metabolic Pathway” value is reported as “hydroxylation; also recorded: dehydrogenation”. For the same compound, in data set [6], the inhibition at 100 µM amounted to 110%. The inhibition at 10 µM in data set [7] worked out at 31%.

A word on the pIC50: it is −log10 of the IC50, conventionally taken in molar units. Broadly, the Kb is the affinity of an antagonist, worked out from how it opposes an agonist. The amount remaining is what is left of the initial amount, in per cent. Read a low amount remaining as a greater loss. As usually defined, the inhibition is the relative decrease from the control value, in per cent.

For the origin of these results see publication PMC9221546, “New Phenylglycinamide Derivatives with Hybrid Structure as Candidates for New Broad-Spectrum Anticonvulsants” (Cells, 2022).
